Experimental data as given in patent US12030896B2, “PIKfyve inhibitors” (Mayo Foundation for Medical Education and Research, priority 2018, dated 2024).
One block for each compound: values may come before it.

Columns and labels:
[1] = cited from earlier work
468 kinases = assay: Kinase selectivity panel (Treespot dendrogram); format: binding
Protocol: In contrast, 50 nM Apilimod inhibited two kinases to 1% or 10%, and 3 kinases to 35% of control. To examine non-specific binding at higher concentrations, Example 1, Example 3, and Apilimod were tested at 5000 nM. […] PIKfyve is represented at the bottom left of each dendrogram.

[2] = oral; cited from earlier work
IL12 and IL23 = conditions: myeloid cells; cited from earlier work
U251 = U251 Vacuolization Assay (24h); format: cell-based; conditions: Homo sapiens, U-251
Protocol: (§1) As used herein the term “EC50 (μM)” refers to the μM concentration of a compound that is required for 50% activity in a vacuolization assay.
Example A—U251 Vacuolization Assay Data (24h) for Compounds of Examples 8-56

cells in culture = assay: Vacuolization activity in cells in culture; format: cell-based
From the text: as §1
Example 2 is a biotinylated derivative of the compound of Example 1.

U251 glioblastoma cell = assay: Cell killing in combination with vemurafenib; format: cell-based, human; conditions: 10 μM vemurafenib, 0 μM Example 1, 72 hour
Protocol: A 25 mM stock of vemurafenib (obtained from Selleckchem) in DMSO was diluted to 2× the indicated concentration into the cell suspension immediately prior to plating the cell suspension onto the pre-diluted Example 1 or Example 3, to result in a final 1× concentration of both compounds.
See FIG. 13 for showing of U251 glioblastoma cell killing by Example 1 alone or in the presence of 10 μM vemurafenib over a 72 hour time course.

SMILES: Cc1cccc(/C=N/Nc2cc(N3CCOCC3)nc(OCCc3ccccn3)n2)c1 [Apilimod, 3-Methylbenzaldehyde 2-[6-(4-Morpholinyl)-2-[2-(2-pyridinyl)ethoxy]-4-pyrimidinyl]hydrazine]
dose limiting toxicity ([1]; headache, flushing, hypoesthesia, dizziness, paresthesia): 105 mg bid
mean improvement in PASI score ([1]; oral, 70 mg qd): 46%
patients with histologic improvement ([1]; oral, 70 mg qd): 47%
IL12 and IL23 expression in skin lesions ([1]; oral): significantly reduced
number of kinases blocked to 1% of control (468 kinases; 50 nM, 468 kinases): two
number of kinases blocked to 10% of control (468 kinases; 50 nM, 468 kinases): two
number of kinases blocked to 35% of control (468 kinases; 50 nM, 468 kinases): 3
number of kinases blocked to 1% activity level (468 kinases; 5000 nM): 4
number of kinases blocked to 10% activity level (468 kinases; 5000 nM): 9
number of kinases blocked to 35% activity level (468 kinases; 5000 nM): 15
selectivity for PIKfyve (468 kinases; comparison of Example 1, Example 3 and apilimod): less specific
IFN-gamma production by ex vivo cells [2]: decreased
TH1 / TH2 responses [2]: suppressed TH1 but not TH2 responses
inflammatory histopathologic skin changes [2]: markedly reduced
IL12 and IL23 production (IL12 and IL23): suppresses

SMILES: Cc1ccccc1Nc1nc(N/N=C/c2c[nH]c3ccccc23)nc(N2CCOCC2)n1 [Example 19, {4-[N′-(1H-Indol-3-ylmethylene)-hydrazino]-6-morpholin-4-yl-[1,3,5]triazin-2-yl}-o-tolyl-amine]
EC50 (U251): ≤ 1 µM

SMILES: O=[N+]([O-])c1ccc(Nc2nc(N/N=C/c3c[nH]c4ccccc34)nc(N3CCOCC3)n2)cc1 [Example 26, (E)-4-(2-((1H-indol-3-yl)methylene)hydrazinyl)-6-morpholino-N-(4-nitrophenyl)-1,3,5-triazin-2-amine]
EC50 (U251): ≤ 1 µM

SMILES: O=C(CCCC[C@@H]1SC[C@@H]2NC(=O)N[C@@H]21)Nc1ccc(Nc2nc(N/N=C/c3c[nH]c4ccccc34)nc(N3CCOCC3)n2)cc1 [Example 2, (E)-N-(4-((4-(2-((1H-indol-3-yl)methylene)hydrazinyl)-6-morpholino-1,3,5-triazin-2-yl)amino)phenyl)-5-(2-oxohexahydro-1H-thieno[3,4-d]imidazol-4-yl)pentanamide]
EC50 (cells in culture): 0.008 µM

SMILES: CCCS(=O)(=O)Nc1ccc(F)c(C(=O)c2c[nH]c3ncc(-c4ccc(Cl)cc4)cc23)c1F [vemurafenib, N-(3-(5-(4-chlorophenyl)-1H-pyrrolo[2,3-b]pyridine-3-carbonyl)-2,4-difluorophenyl)propane-1-sulfonamide, reference compound]
effect on cell killing, alone (U251 glioblastoma cell): little effect

SMILES: Brc1ccc(Nc2nc(N/N=C/c3c[nH]c4ccccc34)nc(N3CCOCC3)n2)cc1 [Example 21, (E)-4-(2-((1h-indol-3-yl)methylene)hydrazinyl)-n-(4-bromophenyl)-6-morpholino-1,3,5-triazin-2-amine]
EC50 (U251): ≤ 1 µM

SMILES: N#Cc1ccc(Nc2nc(N/N=C/c3c[nH]c4ccccc34)nc(N3CCOCC3)n2)cc1 [Example 22, (E)-4-((4-(2-((1H-indol-3-yl)methylene)hydrazinyl)-6-morpholino-1,3,5-triazin-2-yl)amino)benzonitrile]
EC50 (U251): ≤ 1 µM

SMILES: Cc1ccc(Nc2nc(NCCO)nc(N/N=C/c3c[nH]c4ccccc34)n2)cc1 [Example 13, 2-{4-[N′-(1H-Indol-3-ylmethylene)-hydrazino]-6-p-tolylamino-[1,3,5]triazin-2-ylamino}-ethanol]
EC50 (U251): > 50 µM

SMILES: Cc1ccc(Nc2nc(N/N=C/c3c[nH]c4ccccc34)nc(N3CCCCC3)n2)cc1 [Example 15, {4-[N′-(1H-Indol-3-ylmethylene)-hydrazino]-6-piperidin-1-yl-[1,3,5]triazin-2-yl}-p-tolyl-amine]
EC50 (U251): > 50 µM

More lines, now with the values ahead:

EC50 (U251): ≤ 1 µM
SMILES: Cc1ccc(Nc2nc(N/N=C/c3c[nH]c4ccccc34)nc(N3CCOCC3C)n2)cc1 (stereo not drawn) [Example 50, (E)-4-(2-((1H-Indol-3-yl)methylene)hydrazinyl)-6-(3-methylmorpholino)-N-(p-tolyl)-1,3,5-triazin-2-amine]

EC50 (U251): > 50 µM
SMILES: Cc1ccc(Nc2nc(N/N=C/c3c[nH]c4ccccc34)nc(N3CCSCC3)n2)cc1 [Example 38, (E)-4-(2-((1H-Indol-3-yl)methylene)hydrazinyl)-6-thiomorpholino-N-(p-tolyl)-1,3,5-triazin-2-amine]

EC50 (U251): > 50 µM
SMILES: Cc1ccc(Nc2nc(N/N=C/c3c[nH]c4ccccc34)nc(N3CCC(O)CC3)n2)cc1 [Example 37, (E)-1-(4-(2-((1H-Indol-3-yl)methylene)hydrazinyl)-6-(p-tolylamino)-1,3,5-triazin-2-yl)piperidin-4-ol]

EC50 (U251): > 50 µM
SMILES: Cc1[nH]c2ccccc2c1/C=N/Nc1nc(Nc2ccc([N+](=O)[O-])cc2)nc(N2CCCCCC2)n1 [Example 56, (E)-4-(azepan-1-yl)-6-(2-((2-methyl-1H-indol-3-yl)methylene)hydrazinyl)-N-(4-nitrophenyl)-1,3,5-triazin-2-amine]

EC50 (U251): > 50 µM
SMILES: Cc1ccc(Nc2nc(N/N=C/c3c[nH]c4ccccc34)nc(N3CCOc4ccccc43)n2)cc1 [Example 48, (E)-4-(2-((1H-Indol-3-yl)methylene)hydrazinyl)-6-(2H-benzo[b][1,4]oxazin-4(3H)-yl)-N-(p-tolyl)-1,3,5-triazin-2-amine]

EC50 (U251): 1 to 10 µM
SMILES: Cc1ccc(Nc2nc(N/N=C/c3ccncc3)nc(N3CCOCC3)n2)cc1 [Example 32, [4-Morpholin-4-yl-6-(N′-pyridin-4-ylmethylene-hydrazino)-[1,3,5]triazin-2-yl]-p-tolyl-amine]

EC50 (U251): > 50 µM
SMILES: Cc1ccc(Nc2nc(N/N=C/c3c[nH]c4ccccc34)nc(N(C)C)n2)cc1 [Example 30, (E)-6-(2-((1H-Indol-3-yl)methylene)hydrazinyl)-N2,N2-dimethyl-N4-(p-tolyl)-1,3,5-triazine-2,4-diamine]
